These results are taken from patent publication US8557741B2, “3-aminocarbonyl-substituted benzoylcyclohexanediones and their use as herbicides” (Bayer CropScience AG, priority 2010, dated 2013).

Holding throughout (type): in vivo
Test [1] relates to Echinochloa crus galli. The test is described as follows: Pre-emergence herbicidal action against harmful plants. As to conditions: Echinochloa, 504 h, dosage 320 g/ha, visual assessment after 3 weeks (Table A), read-out: Herbicidal action against ECHCG. In short, it runs like this:
(§1)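 Seeds sown in sandy loam in pots and covered with soil; compounds as WP or EC applied to the soil surface as aqueous suspension/emulsion at 600 to 800 l/ha water with 0.2% wetting agent. Greenhouse growth; visual damage scored after 3 weeks versus untreated controls (100% = plants dead, 0% = like control).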

Test [2] deals with Avena fatua. The test is described as above. As to conditions: dosage 320 g/ha, visual assessment after 3 weeks (Table A). In short, it runs like this:
as §1

Test [3] deals with Phartoitis purpureum. Described as above. The conditions noted are these: dosage 320 g/ha, visual assessment after 3 weeks (Table A). In short, it runs like this: as §1
Test [4] relates to Matricaria inodora. Described as above. The conditions noted are these: Tripleurospermum inodorum, 504 h, dosage 320 g/ha, visual assessment after 3 weeks (Table A), read-out: Herbicidal action against MATIN. In short, it runs like this:
as §1

For the next test, the system named is Abutilon theophrasti. The description is as above. As to conditions: Abutilon theophrasti, 504 h, dosage 320 g/ha, visual assessment after 3 weeks (Table A), read-out: Herbicidal action against ABUTH. Put shortly:
as §1

Test [5] concerns Amaranthus retroflexus. The description is as above. As to conditions: 504 h, dosage 320 g/ha, visual assessment after 3 weeks (Table A), read-out: Herbicidal action against AMARE. In short, it runs like this: as §1
The subject of test [6] is Stellaria media. The description is as above. As to conditions: 504 h, dosage 320 g/ha, visual assessment after 3 weeks (Table A), read-out: Herbicidal action against STEME. Put shortly: as §1
The test system of test [7] is Veronica persica. The description is as above. The conditions noted are these: 504 h, dosage 320 g/ha, visual assessment after 3 weeks (Table A), read-out: Herbicidal action against VERPE. Put shortly: as §1
In a further test the test system is Alopecurus myosuroides. Described as above. The conditions noted are these: dosage 320 g/ha, visual assessment after 3 weeks (Table A). Put shortly: as §1
The subject of test [8] is Echinochloa crus galli. The test is described as follows: Post-emergence herbicidal action against harmful plants. The conditions noted are these: 504 h, dosage 80 g/ha, visual rating after about 3 weeks (Table D), read-out: Herbicidal action against ECHCG. In short, it runs like this:
(§2)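 Greenhouse-grown plants in sandy loam were sprayed at the one-leaf stage, 2 to 3 weeks after sowing, with WP or EC formulations in water at 600 to 800 l/ha plus 0.2% wetting agent. Damage was scored visually after about 3 weeks versus untreated controls (100% = plants dead, 0% = as control).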

For test [9], the system named is Avena fatua. The test is described as above. The conditions noted are these: dosage 80 g/ha, visual rating after about 3 weeks (Table D). In short, it runs like this: as §2
For a further test, the system named is Fallopia convolvulus. The description is as above. The conditions noted are these: 504 h, dosage 80 g/ha, visual rating after about 3 weeks (Table D), read-out: Herbicidal action against POLCO. In short, it runs like this: as §2
Test [10] concerns Phartoitis purpureum. The test is described as above. As to conditions: 504 h, dosage 80 g/ha, visual rating after about 3 weeks (Table D), read-out: Herbicidal action against PHBPU. Put shortly:
as §2

Test [11] relates to Matricaria inodora. The test is described as above. As to conditions: Tripleurospermum inodorum, 504 h, dosage 80 g/ha, visual rating after about 3 weeks (Table D), read-out: Herbicidal action against MATIN. Put shortly:
as §2

Test [12] deals with Amaranthus retroflexus. The test is described as above. As to conditions: 504 h, dosage 80 g/ha, visual rating after about 3 weeks (Table D), read-out: Herbicidal action against AMARE. Put shortly:
as §2

In test [13] the test system is Stellaria media. The description is as above. The conditions noted are these: 504 h, dosage 80 g/ha, visual rating after about 3 weeks (Table D), read-out: Herbicidal action against STEME. Put shortly: as §2
Test [14] concerns Veronica persica. The description is as above. As to conditions: 504 h, dosage 80 g/ha, visual rating after about 3 weeks (Table D), read-out: Herbicidal action against VERPE. Put shortly: as §2

For the molecule `CN(C)C(=O)COc1c(Cl)ccc(C(=O)C2=C(O)CCCC2=O)c1C(F)(F)F` [Compound E1], the pest or weed control at 320 g/ha in the test on Echinochloa crus galli [1] turned out to be 100%; in the test on Matricaria inodora [4] it was 100%; in the test with Abutilon theophrasti, 100%; in the test with Amaranthus retroflexus [5], 100%; in the test with Stellaria media [6] it was 90%; with Veronica persica [7], 100%. In addition, the figures for the “Herbicidal action against AVEFA” value with Avena fatua [2] and in the test on Avena fatua [9] were 90% and 80%, respectively. Moreover, the “Herbicidal action against PHBPU” value in the test on Phartoitis purpureum [3] is 80%. For the same molecule, the “Herbicidal action against ALOMY” value in the test with Alopecurus myosuroides came out at 100%. The pest or weed control at 80 g/ha was 90% with Echinochloa crus galli [8]; 100% in the test with Fallopia convolvulus; 90% in the test on Phartoitis purpureum [10]; 100% in the test on Matricaria inodora [11]; 80% with Amaranthus retroflexus [12]; 90% in the test with Stellaria media [13]. For the same molecule, the pest or weed control at 80 g/ha in the test on Veronica persica [14] worked out at 90%.

`CN(C)C(=O)COc1c(Cl)ccc(C(=O)C2=C(O)CCCC2=O)c1Cl` [Compound S1, reference compound]: the pest or weed control at 320 g/ha with Echinochloa crus galli [1] worked out at 30%; in the test with Matricaria inodora [4], 100%; in the test on Abutilon theophrasti it was 90%; in the test on Amaranthus retroflexus [5], 60%; with Stellaria media [6], 80%; with Veronica persica [7], 70%. For the same molecule, the “Herbicidal action against AVEFA” value in the test with Avena fatua [2] is 20%; in the test with Avena fatua [9] it was 50%. Further, the “Herbicidal action against PHBPU” value with Phartoitis purpureum [3] is on record as 40%. In addition, the “Herbicidal action against ALOMY” value in the test on Alopecurus myosuroides is listed as 40%. Also, the pest or weed control at 80 g/ha in the test with Echinochloa crus galli [8] was found to be 50%; in the test with Fallopia convolvulus, 60%; with Phartoitis purpureum [10] it was 70%; in the test with Matricaria inodora [11] it was 100%; in the test on Amaranthus retroflexus [12], 80%; in the test on Stellaria media [13] it was 70%. Besides, the pest or weed control at 80 g/ha in the test with Veronica persica [14] was found to be 70%.
